Assay results: ChEMBL document CHEMBL4382200, “Discovery of Novel 7-Aryl 7-Deazapurine 3'-Deoxy-ribofuranosyl Nucleosides with Potent Activity against Trypanosoma cruzi” (J Med Chem, 2018)
pEC50: −log10 of the molar value. Calls of active or inactive are those of the source. The calls are words filed in the database; no cut-off is given here.

How the values were obtained:
[1] = Therapeutic index, ratio EC50 for human MRC5 SV2 cells to EC50 for Trypanosoma cruzi Tulahuen CL2 intracellular amastigotes; type: toxicity, cell-based; details: read-out: Ratio EC50
Trypanosoma cruzi [2] = assay: Antiparasitic activity against Trypanosoma cruzi Tulahuen CL2 intracellular amastigotes expressing beta-galactosidase infected in human MRC5 SV2 cells after 7 days by chlorophenol red beta-D-galactopyranoside-based spectrophotometric analysis; type: functional, organism-based; details: Tulahuen CL2, MRC-5 SV2, 168 h
[3] = Cytotoxicity against human MRC5 SV2 cells assessed as reduction in cell viability after 3 days resazurin-based fluorimetric assay; details: MRC-5 SV2, 72 h
Cytochrome P450 [4] = assay: Drug metabolism in human liver microsome S9 fraction assessed as CYP450-mediated metabolism by measuring compound remaining at 5 uM pretreated with NADPH and measured after 15 mins by UPLC-MS/MS analysis; type: ADME, microsomes; details: microsomes, 0.25 h, 5 µM
[5] = Drug metabolism in mouse liver microsome S9 fraction assessed as CYP450-mediated metabolism by measuring compound remaining at 5 uM pretreated with NADPH and measured after 15 mins by UPLC-MS/MS analysis; type: ADME, microsomes; details: microsomes, 0.25 h, 5 µM
[6] = Drug metabolism in mouse liver microsome S9 fraction assessed as CYP450-mediated metabolism by measuring compound remaining at 5 uM pretreated with NADPH and measured after 30 mins by UPLC-MS/MS analysis; type: ADME, microsomes; details: microsomes, 0.5 h, 5 µM
[7] = Drug metabolism in mouse liver microsome S9 fraction assessed as CYP450-mediated metabolism by measuring compound remaining at 5 uM pretreated with NADPH and measured after 60 mins by UPLC-MS/MS analysis; type: ADME, microsomes; details: microsomes, 1 h, 5 µM
[8] = Drug metabolism in rat liver microsome S9 fraction assessed as CYP450-mediated metabolism by measuring compound remaining at 5 uM pretreated with NADPH and measured after 15 mins by UPLC-MS/MS analysis; type: ADME, microsomes; details: microsomes, 0.25 h, 5 µM
[9] = Drug metabolism in rat liver microsome S9 fraction assessed as CYP450-mediated metabolism by measuring compound remaining at 5 uM pretreated with NADPH and measured after 30 mins by UPLC-MS/MS analysis; type: ADME, microsomes; details: microsomes, 0.5 h, 5 µM
[10] = Drug metabolism in rat liver microsome S9 fraction assessed as CYP450-mediated metabolism by measuring compound remaining at 5 uM pretreated with NADPH and measured after 60 mins by UPLC-MS/MS analysis; type: ADME, microsomes; details: microsomes, 1 h, 5 µM
[11] = Drug metabolism in dog liver microsome S9 fraction assessed as CYP450-mediated metabolism by measuring compound remaining at 5 uM pretreated with NADPH and measured after 15 mins by UPLC-MS/MS analysis; type: ADME, microsomes, Canis lupus familiaris; details: microsomes, 0.25 h, 5 µM
[12] = Drug metabolism in dog liver microsome S9 fraction assessed as CYP450-mediated metabolism by measuring compound remaining at 5 uM pretreated with NADPH and measured after 30 mins by UPLC-MS/MS analysis; type: ADME, microsomes, Canis lupus familiaris; details: microsomes, 0.5 h, 5 µM
[13] = Drug metabolism in dog liver microsome S9 fraction assessed as CYP450-mediated metabolism by measuring compound remaining at 5 uM pretreated with NADPH and measured after 60 mins by UPLC-MS/MS analysis; type: ADME, microsomes, Canis lupus familiaris; details: microsomes, 1 h, 5 µM
Cytochrome P450 [14] = assay: Drug metabolism in human liver microsome S9 fraction assessed as CYP450-mediated metabolism by measuring compound remaining at 5 uM pretreated with NADPH and measured after 30 mins by UPLC-MS/MS analysis; type: ADME, microsomes; details: microsomes, 0.5 h, 5 µM
Cytochrome P450 [15] = assay: Drug metabolism in human liver microsome S9 fraction assessed as CYP450-mediated metabolism by measuring compound remaining at 5 uM pretreated with NADPH and measured after 60 mins by UPLC-MS/MS analysis; type: ADME, microsomes; details: microsomes, 1 h, 5 µM
Trypanosoma cruzi [16] = assay: Antiparasitic activity against Trypanosoma cruzi Y strain bloodstream trypomastigotes infected in Swiss Webster mouse assessed as decrease in parasitemia at 100 mg/kg, po sid via gavage administered for 5 consecutive days measured at day 8 post infection by direct microscopic counting; type: functional, organism-based
Trypanosoma cruzi [17] = assay: Antiparasitic activity against Trypanosoma cruzi Y strain bloodstream trypomastigotes infected in Swiss Webster mouse assessed as protection against parasite-induced mortality at 25 mg/kg, po bid via gavage administered for 5 consecutive days starting from day 5 post infection measured at day 15 post infection; type: functional, organism-based
Trypanosoma cruzi [18] = assay: Trypanocidal activity against Trypanosoma cruzi Y strain bloodstream trypomastigotes isolated from infected Swiss mouse […] assessed as parasite death after 24 hrs by neubauer chamber based light microscopy; type: functional, organism-based
Trypanosoma cruzi [19] = assay: Trypanocidal activity against Trypanosoma cruzi Y strain intracellular amastigotes infected in mouse cardiac cells assessed as parasite death after 168 hrs by Giemsa-staining based assay; type: functional, organism-based
[20] = Cytotoxicity against Swiss mouse embryonic cardiomyocytes assessed as reduction in cell viability after 24 hrs by prestoblue-staining based colorimetry; details: Cardiac muscle cell
Trypanosoma cruzi [21] = assay: Antiparasitic activity against Trypanosoma cruzi Y strain bloodstream trypomastigotes infected in Swiss Webster mouse assessed as protection against parasite-induced mortality at 100 mg/kg, po sid via gavage administered for 5 consecutive days starting from day 5 post infection measured at day 15 post infection; type: functional, organism-based
Trypanosoma cruzi [22] = assay: Antiparasitic activity against Trypanosoma cruzi Y strain bloodstream trypomastigotes infected in Swiss Webster mouse at 100 mg/kg, po sid via gavage administered for 5 consecutive days starting from day 5 post infection followed by cyclophosphamide-induced immunosuppression on day 40 post infection for 4 consecutive days; type: functional, organism-based

SMILES | selectivity ratio [1] | pEC50 (Trypanosoma cruzi [2]; read-out: EC50) | pEC50 [3] | also measured
Nc1ncnc2c1c(-c1ccc(C(F)(F)F)cc1)cn2[C@@H]1O[C@H](CO)C[C@H]1O | 76 | 6.28 | 4.40 | –
CC(C)c1ccc(-c2cn([C@@H]3O[C@H](CO)C[C@H]3O)c3ncnc(N)c23)cc1 | 2.9 | 5.07 | 4.60 | –
Nc1ncnc2c1c(-c1ccc3ccccc3c1)cn2[C@@H]1O[C@H](CO)C[C@H]1O | 7 | 6.14 | 5.30 | –
Cc1cccc(-c2cn([C@@H]3O[C@H](CO)C[C@H]3O)c3ncnc(N)c23)c1 | > 12 | 5.29 | < 4.19 | –
Nc1ncnc2c1c(-c1ccc(F)cc1)cn2[C@@H]1O[C@H](CO)C[C@H]1O | > 100 | 6.19 | < 4.19 | –
Nc1ncnc2c1c(-c1ccc(Cl)cc1Cl)cn2[C@@H]1O[C@H](CO)C[C@H]1O | 44 | 6.35 | 4.71 | –
COc1ccc(-c2cn([C@@H]3O[C@H](CO)C[C@H]3O)c3ncnc(N)c23)cc1 | 10 | 5.62 | 4.61 | –
Cc1ccc(-c2cn([C@@H]3O[C@H](CO)C[C@H]3O)c3ncnc(N)c23)cc1 | 46 | 6.34 | 4.68 | –
Nc1ncnc2c1c(-c1ccc(F)c(F)c1)cn2[C@@H]1O[C@H](CO)C[C@H]1O | > 190 | 6.48 | < 4.19 | –
Nc1ncnc2c1c(-c1cccc(Cl)c1)cn2[C@@H]1O[C@H](CO)C[C@H]1O | 37 | 6.01 | 4.44 | –
Cc1ccc(-c2cn([C@@H]3O[C@H](CO)C[C@H]3O)c3ncnc(N)c23)cc1C | 16 | 5.86 | 4.65 | –
Nc1ncnc2c1c(-c1ccc([N+](=O)[O-])cc1)cn2[C@@H]1O[C@H](CO)C[C@H]1O | > 53 | 5.92 | < 4.19 | –
Cc1ccc(-c2cn([C@@H]3O[C@H](CO)C[C@H]3O)c3ncnc(N)c23)cc1Cl | 66 | 6.57 | 4.75 | –
Nc1ncnc2c1c(-c1ccccc1)cn2[C@@H]1O[C@H](CO)C[C@H]1O | 24 | 5.59 | 4.21 | –
COc1ccc(-c2cn([C@@H]3O[C@H](CO)C[C@H]3O)c3ncnc(N)c23)cc1Cl | > 19 | 5.48 | < 4.19 | –
Nc1ncnc2c1c(-c1ccc(OC(F)(F)F)cc1)cn2[C@@H]1O[C@H](CO)C[C@H]1O | 29 | 5.86 | 4.39 | –
OC(Cn1cncn1)(Cn1cncn1)c1ccc(F)cc1F [FLUCONAZOLE] | – | – | – | Stability (Cytochrome P450 [4]): Stable; Stability [5]: Stable; Stability [6]: Stable; Stability [7]: Stable; Stability [8]: Stable; Stability [9]: Stable; Stability [10]: Stable; Stability [11]: Stable; Stability [12]: Stable; Stability [13]: Stable; Stability (Cytochrome P450 [14]): Stable; Stability (Cytochrome P450 [15]): Stable
Nc1ncnc2c1c(-c1cccc(C(F)(F)F)c1)cn2[C@@H]1O[C@H](CO)C[C@H]1O | 4.4 | 4.95 | 4.30 | –
Nc1ncnc2c1c(C1=CCCCC1)cn2[C@@H]1O[C@H](CO)C[C@H]1O | > 2 | 4.50 | < 4.19 | –
Nc1ncnc2c1ncn2[C@@H]1O[C@H](CO)C[C@H]1O [CORDYCEPIN] | > 25 | 5.60 | < 4.19 | –
Nc1ncnc2c1c(-c1ccc(Cl)c(Cl)c1)cn2[C@@H]1O[C@H](CO)C[C@H]1O | 230 | 7.23 | 4.87 | –
Cc1cc(-c2cn([C@@H]3O[C@H](CO)C[C@H]3O)c3ncnc(N)c23)ccc1Cl | 80 | 6.68 | 4.78 | –
CCc1ccc(-c2cn([C@@H]3O[C@H](CO)C[C@H]3O)c3ncnc(N)c23)cc1 | 18 | 5.98 | 4.74 | –
Nc1ncnc2c1c(-c1ccc(Cl)c(F)c1)cn2[C@@H]1O[C@H](CO)C[C@H]1O | 260 | 7.15 | 4.73 | –
Nc1ncnc2c1c(C1CCCCC1)cn2[C@@H]1O[C@H](CO)C[C@H]1O | > 3 | 4.68 | < 4.19 | –
O=C(Cn1ccnc1[N+](=O)[O-])NCc1ccccc1 [BENZNIDAZOLE] | – | – | – | pEC50 (Trypanosoma cruzi [2]): 5.64; Activity (Trypanosoma cruzi [16]): Active; Activity (Trypanosoma cruzi [17]): Active; pEC50 (Trypanosoma cruzi [18]): 4.94; pEC50 (Trypanosoma cruzi [19]): 6.45; pEC50 [20]: < 3.40; Activity (Trypanosoma cruzi [21]): Active; Activity (Trypanosoma cruzi [22]): inactive
Nc1ncnc2c1c(-c1ccc(F)c(Cl)c1)cn2[C@@H]1O[C@H](CO)C[C@H]1O | 150 | 6.52 | 4.34 | –
Nc1ncnc2c1c(-c1cc(Cl)cc(Cl)c1)cn2[C@@H]1O[C@H](CO)C[C@H]1O | 55 | 6.26 | 4.52 | –
